# Activity calls are given as the source filed them. The rule behind the calls is not given here.
# Tested on: GENE-TOX genotoxicity assays, various organisms and cells
# Test: GENE-TOX mutagenicity studies
# Conditions: for call: Assay Type: In vivo carcinogenicity studies
# [1] = Species/Cell Type: Escherichia coli polA (W3119 vs P3478), Assay Type: Rec-assay, DNA effects (bacterial DNA repair), Assay Code: RE1T, Evaluation Type: Evaluation A (Pre-1980)
# [2] = Species/Cell Type: Fischer rat embryo (RLV/1706) cells, Assay Type: Cell transformation, viral enhanced, Assay Code: CTR+, Evaluation Type: Evaluation A (Pre-1980)
# [3] = Species/Cell Type: Mouse (BALB/c-3T3) cells, Assay Type: Cell transformation, Assay Code: CTB-, Evaluation Type: Evaluation A (Pre-1980)
# [4] = Species/Cell Type: Nonhuman, Assay Code: CCG+L, Evaluation Type: Evaluation A (Pre-1980)
# [5] = Species/Cell Type: Salmonella typhimurium (one or more of the five standard strains: TA98, TA100, TA1535, TA1537, and TA1538), Assay Type: Histidine reverse gene mutation, Ames assay, Assay Code: SAL+*, Activation: With metabolic activation, Evaluation Type: Evaluation A (Pre-1980)
# [6] = Species/Cell Type: Salmonella typhimurium, Assay Type: Forward and reverse gene mutation, host-mediated assay, Assay Code: HMA+, Evaluation Type: Evaluation A (Pre-1980)
# [7] = Species/Cell Type: Bacillus subtilis (H17 vs M45), Assay Type: Rec-assay, spot test, DNA effects (bacterial DNA repair), Assay Code: REWT, Evaluation Type: Evaluation A (Pre-1980)
# [8] = Species/Cell Type: Nonhuman, Assay Type: Sister-chromatid exchange (SCE) in vitro, Assay Code: SC2+, Evaluation Type: Evaluation B (Post-1980)
# [9] = Species/Cell Type: Saccharomyces cerevisiae, Assay Type: Mitotic recombination or gene conversion, Assay Code: YEH-, Evaluation Type: Evaluation A (Pre-1980)
# [10] = Species/Cell Type: Salmonella typhimurium (one or more of the five standard strains: TA98, TA100, TA1535, TA1537, and TA1538), Assay Type: Histidine reverse gene mutation, Ames assay, Assay Code: SAL-, Evaluation Type: Evaluation A (Pre-1980)
# [11] = Species/Cell Type: Syrian hamster embryo (SHE) cells, Assay Type: Cell transformation, clonal assay, Assay Code: CTC+, Evaluation Type: Evaluation A (Pre-1980)
# [12] = Species/Cell Type: Mammalian polychromatic erythrocytes, Assay Type: Micronucleus test, chromosome aberrations, Assay Code: MNTT, Evaluation Type: Evaluation A (Pre-1980)
# [13] = Species/Cell Type: Escherichia coli polA (W3119 vs P3478), Assay Type: Rec-assay, DNA effects (bacterial DNA repair), Assay Code: RE1+, Evaluation Type: Evaluation A (Pre-1980)
compound,measurement,setting,value
Cc1cc(N(C)C)ccc1N=Nc1ccccc1,mutagenic call,"Species/Cell Type: Escherichia coli polA (W3110 vs P3478), Assay Type: Rec-assay, DNA effects (bacterial DNA repair), Assay Code: RE2-, Evaluation Type: Evaluation A (Pre-1980)",inactive; negative
same,mutagenic call,[1],no conclusion
same,mutagenic call,[2],active; positive
same,mutagenic call,"Species/Cell Type: Human diploid fibroblasts, Assay Type: Unscheduled DNA synthesis (UDS) in vitro, DNA effects, Assay Code: UDH-, Evaluation Type: Evaluation A (Pre-1980)",inactive; negative
same,mutagenic call,[3],inactive; negative
same,call,[4],active; positive
same,mutagenic call,"Species/Cell Type: Nonhuman, Assay Type: Sister-chromatid exchange (SCE) in vitro, Assay Code: SC2+D, Dose Response: With dose response, Evaluation Type: Evaluation A (Pre-1980)",active; positive
same,mutagenic call,"Species/Cell Type: Rat primary hepatocytes, Assay Type: Unscheduled DNA synthesis (UDS) in vitro, DNA effects, Assay Code: UDPT, Evaluation Type: Evaluation A (Pre-1980)",no conclusion
same,mutagenic call,"Species/Cell Type: Saccharomyces cerevisiae, Assay Type: Mitotic recombination or gene conversion, Assay Code: YEH+/-*, Activation: With metabolic activation, Evaluation Type: Evaluation A (Pre-1980)","inactive; positive without activation, negative with activation"
same,mutagenic call,[5],active; positive
same,mutagenic call,[6],active; positive
same,mutagenic call,"Species/Cell Type: Syrian hamster embryo (SHE) cells, Assay Type: Cell transformation, clonal assay, Assay Code: CTC-, Evaluation Type: Evaluation A (Pre-1980)",inactive; negative
CCCCCCCCCCCC(=O)N(C)N=O,mutagenic call,"Species/Cell Type: Saccharomyces cerevisiae, Assay Type: Reverse gene mutation, Assay Code: YER+, Evaluation Type: Evaluation A (Pre-1980)",active; positive
CCN(Cc1ccccc1)c1ccc(C(=C2C=CC(=[N+](CC)Cc3ccccc3)C=C2)c2ccc(S(=O)(=O)O)cc2S(=O)(=O)[O-])cc1,mutagenic call,[7],no conclusion
O.O.O.O.O.O.O.O.O.O=[N+]([O-])[O-].O=[N+]([O-])[O-].O=[N+]([O-])[O-].[Cr+3],mutagenic call,[8],active; positive
O=NN1CCCC1=O,mutagenic call,"Species/Cell Type: Bacillus subtilis (H17 vs M45), Assay Type: Rec-assay, spot test, DNA effects (bacterial DNA repair), Assay Code: REW+, Evaluation Type: Evaluation A (Pre-1980)",active; positive
COc1ccccc1-c1ccccc1,mutagenic call,[9],inactive; negative
same,mutagenic call,[10],inactive; negative
CS(=O)(=O)OCCNC(=O)N(CCCl)N=O,mutagenic call,"Species/Cell Type: Drosophila melanogaster, Assay Type: Sex-linked recessive lethal gene mutation, Assay Code: SRL+, Evaluation Type: Evaluation A (Pre-1980)",active; positive
same,mutagenic call,"Species/Cell Type: Saccharomyces cerevisiae, Assay Type: Mitotic recombination or gene conversion, Assay Code: YEC+, Evaluation Type: Evaluation A (Pre-1980)",active; positive
O=C(Nc1ccc([N+](=O)[O-])cc1Cl)c1cc(Cl)ccc1O,mutagenic call,"Species/Cell Type: Human lymphocytes, Assay Type: Sister-chromatid exchange (SCE) in vitro, Assay Code: SCL+D, Dose Response: With dose response, Evaluation Type: Evaluation B (Post-1980)",active; positive
same,mutagenic call,"Species/Cell Type: Human lymphocytes, Assay Type: Sister-chromatid exchange (SCE) in vivo, Assay Code: SCY+, Evaluation Type: Evaluation B (Post-1980)",active; positive
same,mutagenic call,"Species/Cell Type: Human, Assay Type: Sister-chromatid exchange (SCE) in vitro, Assay Code: SC1+D, Dose Response: With dose response, Evaluation Type: Evaluation B (Post-1980)",active; positive
CC(=O)C1COC(O)C1C (stereo not given),mutagenic call,"Species/Cell Type: Nonhuman, Assay Type: Sister-chromatid exchange (SCE) in vitro, Assay Code: SC2+D, Dose Response: With dose response, Evaluation Type: Evaluation B (Post-1980)",active; positive
Cc1c2ccccc2cc2c3c(ccc12)C=CC(O)C3O (stereo not given),mutagenic call,[5],active; positive
Cc1ccc2nc3c(ccc4ccccc43)c(C)c2c1,mutagenic call,"Species/Cell Type: Escherichia coli polA (W3110 vs P3478), Assay Type: Rec-assay, DNA effects (bacterial DNA repair), Assay Code: RE2T, Evaluation Type: Evaluation A (Pre-1980)",no conclusion
same,mutagenic call,[1],no conclusion
same,mutagenic call,[2],active; positive
same,mutagenic call,[3],inactive; negative
same,call,[4],active; positive
same,mutagenic call,[9],inactive; negative
same,mutagenic call,[5],active; positive
same,mutagenic call,"Species/Cell Type: Salmonella typhimurium, Assay Type: Forward and reverse gene mutation, host-mediated assay, Assay Code: HMA-, Evaluation Type: Evaluation A (Pre-1980)",inactive; negative
same,mutagenic call,[11],active; positive
OCC1=C[C@H](N[C@H]2C[C@H](CO)[C@@H](O[C@@H]3O[C@H](CO)[C@@H](O)[C@H](O)[C@H]3O)[C@H](O)[C@H]2O)[C@H](O)[C@@H](O)[C@@H]1O,mutagenic call,"Species/Cell Type: Bacillus subtilis (H17 vs M45), Assay Type: Rec-assay, spot test, DNA effects (bacterial DNA repair), Assay Code: REW-, Evaluation Type: Evaluation A (Pre-1980)",inactive; negative
CC(C)NCC(O)c1ccc(NS(C)(=O)=O)cc1 (stereo not given),mutagenic call,"Species/Cell Type: Mammalian polychromatic erythrocytes, Assay Type: Micronucleus test, chromosome aberrations, Assay Code: MNTT, Evaluation Type: Evaluation B (Post-1980)",no conclusion
CN(C)c1ccc(N=Nc2ccc(S(=O)(=O)O)cc2)cc1,mutagenic call,"Species/Cell Type: Bacillus subtilis (H17 vs M45T), Assay Type: Rec-assay, spot test, DNA effects (bacterial DNA repair), Assay Code: REXT, Evaluation Type: Evaluation A (Pre-1980)",no conclusion
same,mutagenic call,[12],no conclusion
same,mutagenic call,"Species/Cell Type: Mouse, Sex: Male, Assay Type: Sperm morphology, Assay Code: SPI-, Evaluation Type: Evaluation A (Pre-1980)",inactive; negative
same,mutagenic call,[8],active; positive
same,mutagenic call,[10],inactive; negative
CC(=O)Oc1ccc2c3c1O[C@H]1[C@@H](OC(C)=O)C=C[C@H]4[C@@H](C2)N(C)CC[C@@]341,mutagenic call,"Species/Cell Type: Nonhuman, Assay Type: Sister-chromatid exchange (SCE) in vivo, Assay Code: SC3+, Evaluation Type: Evaluation B (Post-1980)",active; positive
C=CCc1ccc2c(c1)OCO2,mutagenic call,"Species/Cell Type: Drosophila melanogaster, Assay Type: Sex-linked recessive lethal gene mutation, Assay Code: SRL-, Evaluation Type: Evaluation A (Pre-1980)",inactive; negative
same,mutagenic call,"Species/Cell Type: Escherichia coli polA (W3110 vs P3478), Assay Type: Rec-assay, DNA effects (bacterial DNA repair), Assay Code: RE2+, Evaluation Type: Evaluation A (Pre-1980)",active; positive
same,mutagenic call,[13],active; positive
same,mutagenic call,"Species/Cell Type: Human diploid fibroblasts, Assay Type: Unscheduled DNA synthesis (UDS) in vitro, DNA effects, Assay Code: UDH-*, Activation: With metabolic activation, Evaluation Type: Evaluation A (Pre-1980)",inactive; negative
same,mutagenic call,[12],no conclusion
same,mutagenic call,"Species/Cell Type: Mouse, Sex: Male, Assay Type: Sperm morphology, Assay Code: SPIT, Evaluation Type: Evaluation A (Pre-1980)",no conclusion
same,call,"Species/Cell Type: Nonhuman, Assay Code: CCG+, Evaluation Type: Evaluation A (Pre-1980)",active; positive
same,mutagenic call,[8],active; positive
same,mutagenic call,"Species/Cell Type: Saccharomyces cerevisiae, Assay Type: Mitotic recombination or gene conversion, Assay Code: YEH+, Evaluation Type: Evaluation A (Pre-1980)",active; positive
same,mutagenic call,[10],inactive; negative
same,mutagenic call,[6],active; positive
same,mutagenic call,[11],active; positive
same,mutagenic call,"Species/Cell Type: Tradescantia species, Assay Type: Gene mutation, Assay Code: TRM+D, Dose Response: With dose response, Evaluation Type: Evaluation A (Pre-1980)",active; positive
O[C@@H]1[C@@H]2O[C@@H]2c2ccccc2[C@H]1O,mutagenic call,[13],active; positive
O=S(=O)(O)c1ccc2c(N=Nc3cccc4ccccc34)c(O)c(S(=O)(=O)O)cc2c1,mutagenic call,[7],no conclusion
O=C(Nc1nc(-c2ccc([N+](=O)[O-])o2)cs1)C(F)(F)F,mutagenic call,"Species/Cell Type: Escherichia coli WP2, Assay Type: Tryptophan reverse gene mutation, Assay Code: WP2+, Evaluation Type: Evaluation A (Pre-1980)",active; positive
same,mutagenic call,"Species/Cell Type: Escherichia coli WP2 UVRA, Assay Type: Tryptophan reverse gene mutation, Assay Code: WPU-, Evaluation Type: Evaluation A (Pre-1980)",inactive; negative
same,mutagenic call,"Species/Cell Type: Salmonella typhimurium (one or more of the five standard strains: TA98, TA100, TA1535, TA1537, and TA1538), Assay Type: Histidine reverse gene mutation, Ames assay, Assay Code: SAL+, Evaluation Type: Evaluation A (Pre-1980)",active; positive

# Reference: PubChem BioAssay AID1259408 (Genetic Toxicology Data Bank (GENE-TOX), 2018)
